The values below come from patent US20230065158A1, “OXABICYCLOHEPTANES FOR TREATMENT OF SMALL CELL LUNG CANCER” (Lixte Biotechnology, Inc., priority 2021, published 2023).

Series [1] relates to extensive-stage small cell lung carcinoma. The note with it: first study subject.
Excerpt: The Phase Ib study is a single arm study expected to enroll 18 evaluable patients (maximum 30) entered in groups of 3 at escalating doses of LB-100 using the traditional 3+3 design. […] Each cycle is defined as 3 weeks (21 days). Patients will then proceed to maintenance with LB-100 and atezolizumab. Patients who discontinue study therapy without disease progression will continue to be evaluated for tumor response using RECIST v1.1 (Appendix B) guidelines every 6-8 weeks until disease progression, death, or study closure.
Dose Escalation: The Phase I dose-finding will use a traditional 3+3 to determine the maximum tolerated dose (MTD), based on first cycle DLTs. A maximum of 4 dose levels of LB-100 will be explored. […]
Treatment Overview: This Phase Ib study of LB-100 diluted in 50 mL of normal saline for injection will be administered intravenously in the outpatient clinic over 15 minutes in patients with extensive-stage small cell lung cancer. […] All three patients at each dose level will be assessed for evidence of limiting toxicity through their return visit day 21 (and any delay prior to the start of cycle 2) before the decision is made for dose escalation in the next cohort.
The next series has as its system H69 cells. Put plainly: Glucose uptake assay (glucose oxidase). The note with it: LB-100 20 μM, compared with control without cells. Type of series: cell-based. From the text: FIGS. 4A-4F depict a reactome pathway analysis of PamGene PTKs and STKs after LB-100 treatment of H524 cells and Biolog phenotype MicroArray. […] Table includes 10 carbon sources affected by LB-100 (n=3). […] P<0.001 (***) for control (untreated cells) vs. LB-100. FIG. 4D: Amplex Red Glucose/Oxidase assay kit was used to measure glucose level in cell culture media. […] Glucose concentration detected in initial medium and counted as 100%. Subtracting final medium level of glucose from initial glucose medium concentration yielded % glucose in the medium with cells (n=3). Effect of LB-100 on MET phosphorylation. FIG. 4E: H524 and H69 cells were treated overnight with LB-100 (H524—5 μM and H69—20 μM) following by stimulation with 100 ng/ml HGF in 10 min. Cells were collected and lysed for WB analysis with pMET and total MET antibody. Pan-actin was used as loading control (n=3). FIG. 4F: H524 cell lysates (control, LB-100, carboplatin and combination (LB-100/carboplatin) were analyzed by western blots to check phosphorylation status of MET at Ser985 and Tyr1234/1235. Actin was used as a loading control (n=3). […]
Glucose consumption was determined by using a colorimetric glucose assay (Invitrogen, Carlsbad, Calif.) following the manufacturer's instructions. […] The uptake of glucose was determined compared with initial glucose concentration in the cell culture medium, which was taken as 100%.

Another series concerns H526 cells. The following applies: human, 72 h.
The test system of a further series is H446 cells. The following applies: human, 72 h.
For the next series, the system named is advanced solid tumors. The following applies: cited from earlier work.
The next series deals with H524 and H69 cells. As to the kind of experiment: Whole cell Pt accumulation, ICP-MS. The following applies: LB100 pretreatment then carboplatin 4 hours, versus carboplatin alone. The class given is cell-based. The protocol: FIGS. 3A-3H depict SCLC cell invasion through HUVEC monolayer. FIGS. 3A-3D: Graphical representation of H524/H69 cell ability to disrupt a confluent HUVEC monolayer using an electrical substrate-impedance sensing system. Arrows indicate time point when cells were added. Inserts show mean values and SD for each group after 20 h of drug treatment. After treatment, cell viability was counted using an Auto T4 Cell Counter (Nexcelom Cellometer). Cell viability was 90-95% for drug-treated groups (n=2). p<0.001 (***) for control (untreated cells) vs. drug combination (LB100/carboplatin). Whole cell Pt accumulation. Graphical representation of LB-100 effect on platinum uptake by SCLC cells. […]
To this end, platinum (Pt) levels were measured in H524 and H69 cells using Inductively Coupled Plasma Mass Spectrometry (ICP-MS). […]
Samples were prepared and analyzed for Pt concentrations at the Isotoparium (California Institute of Technology), using precleaned Teflon beakers (PFA), Optima grade reagents (Fisher Chemical) and 18.2 MΩ Milli-Q water. […] All samples were analyzed using an iCAP RQ (ThermoFisher, Waltham, Mass.) ICP-MS and an SC-2 DX autosampler (Elemental Scientific, Omaha, Nebr.). […] A Pt standard curve (0.001, 0.01, 0.1, 1.0 ppb, Spex Certiprep Assurance, Lot #24-140PTM) was created using the HNO3 stock solution and measured for sample calibration. […]

pIC50: −log10 of the molar value. Entries after “also recorded” stand apart in the source; their conditions may differ.

Excerpt for H446 cells: (§1) To determine specific cytotoxicity, we used Cell Counting Kit-8 (Dojindo Molecular Technologies, Rockville, Md.) as previously described (50).
Excerpt for H526 cells: as §1

Regarding `C[NH+]1CCN(C(=O)C2C(C(=O)O)[C@H]3CC[C@@H]2O3)CC1` (stereo in doubt) [LB-100, 3-[(4-Methylpiperazin-1-yl)carbonyl]-7-oxabicyclo[2.2.1]heptane-2-carboxylic acid], in series [1] (after the 2nd cycle, LB-100 0.83 mg/m2 days 1 & 3 with carboplatin/etoposide/atezolizumab), the partial objective response was 47%. Besides, the “decrease in measurable tumor” value in series [1] (following the 4th and last cycle of induction therapy) amounted to 58%. Also, in the series with H69 cells, the “reduction of consumption of glucose in media” value came to 65%. For the same compound, the results for the negative logarithm of the IC50 (pIC50) with H526 cells and in the series with H446 cells were 5.14 and 5.16, respectively. In addition, in the series with advanced solid tumors (Phase I trial), the “tolerability / adverse events” value is given as “no notable adverse events; also recorded: well tolerated”. Also, in the series with advanced solid tumors (Phase I, advanced solid tumors), the “patients who achieved stable disease” value is recorded as 10 out of 20. In addition, the “Pt level in cells” value with H524 and H69 cells is “enhanced the uptake of Pt”.

As a reminder, the pIC50 is the IC50 on a negative log10 scale, so that one unit is a factor of ten. A higher pIC50 goes with a low IC50.
